The values below come from PubChem BioAssay AID330 (DTP/NCI, 2004).

The test system of the assay is P388 leukemia ip, CD2F1 mice, survival T/C. Kind of assay: NCI In Vivo Anticancer Drug Screen. Data for tumor model P388 Leukemia (intraperitoneal) in CD2F1 (CDF1) mice. To be noted: endpoint: median survival time, higher = longer survival. The method, boiled down:
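Mice carrying the transplanted tumor received test compound or vehicle. Survival was recorded in each group, and the value is the treated-group measurement divided by that of the vehicle-treated control group.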

Setting [1] is: dose: 50.0 mg/kg/injection, schedule: Q01DX005 (ip), vehicle: saline.
Where [2] appears, read: dose: 100.0 mg/kg/injection, schedule: Q01DX005 (ip), vehicle: saline.
Where [3] appears, read: dose: 200.0 mg/kg/injection, schedule: Q01DX005 (ip), vehicle: saline.
Where [4] appears, read: dose: 50.0 mg/kg/injection, schedule: Q01DX005 (ip), vehicle: Klucel (hydroxypropylcellulose) (HPC).
Setting [5] is: dose: 50.0 mg/kg/injection, schedule: Q01DX009 (ip), vehicle: saline.
[6] abbreviates: dose: 100.0 mg/kg/injection, schedule: Q01DX009 (ip), vehicle: saline.
Setting [7] is: dose: 200.0 mg/kg/injection, schedule: Q01DX009 (ip), vehicle: saline.
Where [8] appears, read: dose: 60.0 mg/kg/injection, schedule: Q01DX005 (ip), vehicle: Klucel (hydroxypropylcellulose) (HPC).
[9] abbreviates: dose: 120.0 mg/kg/injection, schedule: Q01DX005 (ip), vehicle: Klucel (hydroxypropylcellulose) (HPC).
Where [10] appears, read: dose: 240.0 mg/kg/injection, schedule: Q01DX005 (ip), vehicle: Klucel (hydroxypropylcellulose) (HPC).
Where [11] appears, read: dose: 50.0 mg/kg/injection, schedule: Q01DX009 (ip), vehicle: Klucel (hydroxypropylcellulose) (HPC).
[12] abbreviates: dose: 100.0 mg/kg/injection, schedule: Q01DX009 (ip), vehicle: Klucel (hydroxypropylcellulose) (HPC).
Setting [13] is: dose: 200.0 mg/kg/injection, schedule: Q01DX009 (ip), vehicle: Klucel (hydroxypropylcellulose) (HPC).
The mark [14] stands for this setting: dose: 60.0 mg/kg/injection, schedule: Q01DX005 (ip), vehicle: saline with Tween-80.
Setting [15] is: dose: 120.0 mg/kg/injection, schedule: Q01DX005 (ip), vehicle: saline with Tween-80.
Where [16] appears, read: dose: 240.0 mg/kg/injection, schedule: Q01DX005 (ip), vehicle: saline with Tween-80.
[17] abbreviates: dose: 100.0 mg/kg/injection, schedule: Q04DX002 (ip), vehicle: saline with Tween-80.
[18] abbreviates: dose: 200.0 mg/kg/injection, schedule: Q04DX002 (ip), vehicle: saline with Tween-80.
[19] abbreviates: dose: 400.0 mg/kg/injection, schedule: Q04DX002 (ip), vehicle: saline with Tween-80.
Where [20] appears, read: dose: 50.0 mg/kg/injection, schedule: Q01DX005 (ip), vehicle: saline with Tween-80.
Setting [21] is: dose: 100.0 mg/kg/injection, schedule: Q01DX005 (ip), vehicle: saline with Tween-80.
[22] abbreviates: dose: 12.5 mg/kg/injection, schedule: Q01DX005 (ip), vehicle: Klucel (hydroxypropylcellulose) (HPC).
[23] abbreviates: dose: 25.0 mg/kg/injection, schedule: Q01DX005 (ip), vehicle: Klucel (hydroxypropylcellulose) (HPC).

Inconclusive results and toxic doses are left out.

Regarding `CCCCn1[nH]nc(C(=O)OC)c1=O` (tested in a mixture with another compound), the T/C was 105 % of control under setting [1], 102 % of control under setting [2] and 94 % of control under setting [3].

Consider `O=C1C=C(n2ccccc2=O)CCC1`, for which the T/C runs as follows: (dose: 60.0 mg/kg/injection, schedule: Q01DX005 (ip), vehicle: saline) 93 % of control; (dose: 120.0 mg/kg/injection, schedule: Q01DX005 (ip), vehicle: saline) 93 % of control; (dose: 240.0 mg/kg/injection, schedule: Q01DX005 (ip), vehicle: saline) 102 % of control.

For the compound `N=c1nc(-c2ccccc2)c(-c2ccccc2)nn1CC(=O)c1ccc(Br)cc1`, the T/C reads like this: under setting [4], 111 % of control; (dose: 100.0 mg/kg/injection, schedule: Q01DX005 (ip), vehicle: Klucel (hydroxypropylcellulose) (HPC)) 94 % of control.

On to `O=C(NCCCCN1CC1)C(=O)NCCCCN1CC1`, for which the T/C by setting is: (dose: 0.78 mg/kg/injection, schedule: Q04DX003 (ip), vehicle: Klucel (hydroxypropylcellulose) (HPC)) 120 % of control; (dose: 3.12 mg/kg/injection, schedule: Q04DX003 (ip), vehicle: Klucel (hydroxypropylcellulose) (HPC)) 162 % of control; (dose: 6.25 mg/kg/injection, schedule: Q04DX003 (ip), vehicle: Klucel (hydroxypropylcellulose) (HPC)) 178 % of control.

On to `Cc1cc(N/N=C/c2ccc(N(CCCl)CCCl)cc2)nc2ccc(Cl)cc12`, for which the T/C by setting is: under setting [5], 97 % of control; under setting [6], 100 % of control; under setting [7], 100 % of control.

Regarding `S=c1nc(-c2nc(=S)[nH]c3c2CCCCCCCCCC3)c2c([nH]1)CCCCCCCCCC2`, the T/C was 99 % of control under setting [8], 92 % of control under setting [9] and 93 % of control under setting [10].

Regarding `NC(=O)c1[nH]c(N=Nc2ccc(Cl)cc2)nc1N`, the T/C reads like this: under setting [11], 92 % of control; under setting [12], 100 % of control; under setting [13], 89 % of control.

Turning to `C(=C\c1ccccn1)/c1ccc(/C=C/c2ccccn2)cc1`, the T/C is, setting by setting: under setting [14], 98 % of control; under setting [15], 103 % of control; under setting [16], 97 % of control.

In the case of `CCCCN(CCCC)CCC(O)c1cc2c(Cl)cc(Cl)cc2c2cc(C(F)(F)F)ccc12` (centres undefined), the T/C by setting is: (dose: 50.0 mg/kg/injection, schedule: Q01DX009 (ip), vehicle: saline with Tween-80) 100 % of control; (dose: 100.0 mg/kg/injection, schedule: Q01DX009 (ip), vehicle: saline with Tween-80) 96 % of control.

As to `CC(C)C(=O)NCc1ccccc1Sc1ccccc1CNC(=O)C(C)C`, the T/C under setting [17] was 90 % of control, the T/C under setting [18] is 90 % of control and the T/C under setting [19] was 91 % of control.

With `O=C(Nc1ccc(NC(=O)Nc2cc(C(F)(F)F)ccc2Oc2ccc(Cl)c(Cl)c2)cc1)Nc1cc(C(F)(F)F)ccc1Oc1ccc(Cl)c(Cl)c1`, the T/C was 91 % of control under setting [8], 98 % of control under setting [9] and 94 % of control under setting [10].

With `COc1cc(C/C(=C/c2ccc(OC)c3occc23)[N+](=O)[O-])cc(OC)c1OC`, the T/C by setting is: under setting [20], 98 % of control; under setting [21], 107 % of control; (dose: 200.0 mg/kg/injection, schedule: Q01DX005 (ip), vehicle: saline with Tween-80) 113 % of control.

`O=C1/C(=C\c2ccccc2)C(NC2CCCCC2)c2ccccc21` (centres undefined): the T/C was 109 % of control (dose: 3.12 mg/kg/injection, schedule: Q01DX005 (ip), vehicle: Klucel (hydroxypropylcellulose) (HPC)); 100 % of control (dose: 6.25 mg/kg/injection, schedule: Q01DX005 (ip), vehicle: Klucel (hydroxypropylcellulose) (HPC)); 107 % of control under setting [22]; 107 % of control under setting [23].

Take `Oc1c(Cl)cc(Cl)cc1/C=N/NC(=S)Nc1cc(C(F)(F)F)cc(C(F)(F)F)c1`: the T/C (dose: 12.5 mg/kg/injection, schedule: Q01DX009 (ip), vehicle: olive oil, sesame oil, peanut oil) was 105 % of control; the T/C (dose: 25.0 mg/kg/injection, schedule: Q01DX009 (ip), vehicle: olive oil, sesame oil, peanut oil) is 107 % of control; the T/C (dose: 50.0 mg/kg/injection, schedule: Q01DX009 (ip), vehicle: olive oil, sesame oil, peanut oil) is 120 % of control; the T/C (dose: 50.0 mg/kg/injection, schedule: Q01DX009 (oral), vehicle: saline with Tween-80) was 92 % of control; the T/C (dose: 100.0 mg/kg/injection, schedule: Q01DX009 (ip), vehicle: olive oil, sesame oil, peanut oil) was 86 % of control; the T/C (dose: 100.0 mg/kg/injection, schedule: Q01DX009 (oral), vehicle: saline with Tween-80) was 108 % of control. Moreover, the T/C is 99 % of control (dose: 200.0 mg/kg/injection, schedule: Q01DX009 (oral), vehicle: saline with Tween-80) and 90 % of control (dose: 400.0 mg/kg/injection, schedule: Q01DX009 (oral), vehicle: saline with Tween-80).

As to `CN(C)C(=O)n1cnc([N+](=O)[O-])c1`, the T/C (dose: 100.0 mg/kg/injection, schedule: Q01DX001 (ip), vehicle: saline with Tween-80) was 97 % of control and the T/C (dose: 200.0 mg/kg/injection, schedule: Q01DX001 (ip), vehicle: saline with Tween-80) is 112 % of control.

On to `N#CC(C(=O)C(=O)Nc1cccc(C(F)(F)F)c1)c1cccc(Cl)c1` (centres undefined), for which the T/C reads like this: under setting [14], 105 % of control; under setting [15], 112 % of control; under setting [16], 103 % of control.

Regarding `CCC(=O)OCc1c(Cl)nc2n1CCS2`, the T/C runs as follows: (dose: 100.0 mg/kg/injection, schedule: Q01DX001 (ip), vehicle: Klucel (hydroxypropylcellulose) (HPC)) 100 % of control; (dose: 200.0 mg/kg/injection, schedule: Q01DX001 (ip), vehicle: Klucel (hydroxypropylcellulose) (HPC)) 100 % of control.

Take `COc1cc2c(cc1Cc1cc(OC)c(OC)c(OC)c1)OCO2`: the T/C reads like this: under setting [8], 98 % of control; under setting [9], 100 % of control; under setting [10], 98 % of control.

With `Cc1cc(O)c(-c2c(-c3ccccc3C(=O)O)oc3cc(C)c(C)cc23)cc1C`, the T/C reads like this: under setting [5], 89 % of control; under setting [6], 89 % of control; under setting [7], 90 % of control.

In the case of `C=CCNC(=S)NC(c1ccc(OC)cc1)C(CC)c1ccc(OC)cc1` (centres undefined), the T/C is 100 % of control under setting [17], 101 % of control under setting [18] and 106 % of control under setting [19].

For `O=c1ccn(C2OC(CO)C(O)C2Cl)c(=O)[nH]1` (centres undefined), the T/C was 101 % of control (dose: 6.25 mg/kg/injection, schedule: Q01DX009 (ip), vehicle: Klucel (hydroxypropylcellulose) (HPC)); 104 % of control (dose: 12.5 mg/kg/injection, schedule: Q01DX009 (ip), vehicle: Klucel (hydroxypropylcellulose) (HPC)); 109 % of control (dose: 25.0 mg/kg/injection, schedule: Q01DX009 (ip), vehicle: Klucel (hydroxypropylcellulose) (HPC)); 105 % of control under setting [11]; 101 % of control under setting [12]; 104 % of control under setting [13].

`CC1(C)CC(=O)C=C(NCCCCCCCCNC2=CC(=O)CC(C)(C)C2)C1`: the T/C is 95 % of control under setting [11], 106 % of control under setting [12] and 100 % of control under setting [13].

Regarding `CCCOc1cc2c(cc1C(C)(C)c1ccccc1)OCO2`, the T/C is, setting by setting: under setting [20], 95 % of control; under setting [21], 100 % of control.

`COC1=CCC2=C(CCN(C)C2Cc2ccc(OC)cc2)C1` (centres undefined): the T/C was 97 % of control under setting [22], 96 % of control under setting [23] and 100 % of control under setting [4].

In the case of `CC(C)(C)N1CCOCN2CCCCC2CCN(C(C)(C)C)CCOCN2CCCCC2CC1` (centres undefined), the T/C is 100 % of control under setting [1], 99 % of control under setting [2] and 100 % of control under setting [3].
